Literature values in patent publication US7198895B2, “In vitro cell-based methods for biological validation and pharmacological screening of chemical entities and biologicals” (priority 2000, dated 2007).

Tests used:
[1] = treated subjects
HepG2 cells = HepG2 cells exposed to cis-platinum; ref (17)

Row | SMILES | life-threatening adverse event [1] | number of genes consistently differentially expressed (HepG2 cells) [genes] | number of genes differentially expressed (HepG2 cells) [genes]
1 | CCNC(C)Cc1cccc(C(F)(F)F)c1 (stereo not drawn) [Fenfluramine] | valvular fibrosis |  | 
2 | N.N.[Cl][Pt][Cl] [cis-platinum] |  | 14 | ≥ 200
